# Assay results as given in PubChem BioAssay AID330 (DTP/NCI, 2004).
# Where “and” joins values, the source holds several entries; their conditions need not be identical. Identical values can stand only once. Inconclusive results and toxic doses are left out.
# System: P388 leukemia ip, CD2F1 mice, survival T/C
# Experiment: NCI In Vivo Anticancer Drug Screen. Data for tumor model P388 Leukemia (intraperitoneal) in CD2F1 (CDF1) mice
# Settings: endpoint: median survival time, higher = longer survival
# Procedure, shortened: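 Mice carrying the transplanted tumor received test compound or vehicle. Survival was recorded in each group, and the value is the treated-group measurement divided by that of the vehicle-treated control group.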
# [1] = dose: 60.0 mg/kg/injection, schedule: Q01DX005 (ip), vehicle: saline with Tween-80
# [2] = dose: 120.0 mg/kg/injection, schedule: Q01DX005 (ip), vehicle: saline with Tween-80
# [3] = dose: 240.0 mg/kg/injection, schedule: Q01DX005 (ip), vehicle: saline with Tween-80
# [4] = dose: 25.0 mg/kg/injection, schedule: Q01DX005 (ip), vehicle: saline with Tween-80
# [5] = dose: 50.0 mg/kg/injection, schedule: Q01DX005 (ip), vehicle: saline with Tween-80
# [6] = dose: 100.0 mg/kg/injection, schedule: Q01DX005 (ip), vehicle: saline with Tween-80
# [7] = dose: 200.0 mg/kg/injection, schedule: Q01DX005 (ip), vehicle: saline with Tween-80
# [8] = dose: 50.0 mg/kg/injection, schedule: Q01DX009 (ip), vehicle: saline
# [9] = dose: 12.5 mg/kg/injection, schedule: Q01DX005 (ip), vehicle: saline with Tween-80
# [10] = dose: 50.0 mg/kg/injection, schedule: Q01DX009 (ip), vehicle: Klucel (hydroxypropylcellulose) (HPC)
# [11] = dose: 100.0 mg/kg/injection, schedule: Q01DX009 (ip), vehicle: Klucel (hydroxypropylcellulose) (HPC)
# [12] = dose: 200.0 mg/kg/injection, schedule: Q01DX009 (ip), vehicle: Klucel (hydroxypropylcellulose) (HPC)
# [13] = dose: 50.0 mg/kg/injection, schedule: Q01DX009 (ip), vehicle: saline with Tween-80
# [14] = dose: 100.0 mg/kg/injection, schedule: Q01DX009 (ip), vehicle: saline with Tween-80
# [15] = dose: 200.0 mg/kg/injection, schedule: Q01DX009 (ip), vehicle: saline with Tween-80
smiles,measurement,setting,value
CCOC(=O)c1cc[nH]c1CC(=O)NC,T/C,"dose: 25.0 mg/kg/injection, schedule: Q01DX001 (ip), vehicle: saline with Tween-80",98 % of control and 107 % of control
same,T/C,"dose: 50.0 mg/kg/injection, schedule: Q01DX001 (ip), vehicle: saline with Tween-80",102 % of control and 105 % of control
same,T/C,"dose: 100.0 mg/kg/injection, schedule: Q01DX001 (ip), vehicle: saline with Tween-80",103 % of control and 113 % of control
same,T/C,"dose: 200.0 mg/kg/injection, schedule: Q01DX001 (ip), vehicle: saline with Tween-80",113 % of control and 116 % of control
NC(N)=N/N=C/COc1cccnc1,T/C,[1],97 % of control
same,T/C,[2],100 % of control
same,T/C,[3],97 % of control
Cn1c(=O)c2nc(-c3ccccc3)nnc2n(CCO)c1=O,T/C,"dose: 100.0 mg/kg/injection, schedule: Q04DX002 (ip), vehicle: Klucel (hydroxypropylcellulose) (HPC)",105 % of control
same,T/C,"dose: 200.0 mg/kg/injection, schedule: Q04DX002 (ip), vehicle: Klucel (hydroxypropylcellulose) (HPC)",106 % of control
same,T/C,"dose: 400.0 mg/kg/injection, schedule: Q04DX002 (ip), vehicle: Klucel (hydroxypropylcellulose) (HPC)",110 % of control
CN1CCC(CO)C1 (stereo not given),T/C,"dose: 12.5 mg/kg/injection, schedule: Q01DX009 (ip), vehicle: water",91 % of control
same,T/C,"dose: 25.0 mg/kg/injection, schedule: Q01DX009 (ip), vehicle: water",91 % of control
same,T/C,"dose: 50.0 mg/kg/injection, schedule: Q01DX009 (ip), vehicle: water",91 % of control
COc1ccc2c(c1)c1ccnc3ccc(=O)n2c31,T/C,"dose: 0.83 mg/kg/injection, schedule: Q01DX009 (ip), vehicle: saline with Tween-80",98 % of control
same,T/C,"dose: 1.65 mg/kg/injection, schedule: Q01DX009 (ip), vehicle: saline with Tween-80",109 % of control
same,T/C,"dose: 3.29 mg/kg/injection, schedule: Q01DX009 (ip), vehicle: saline with Tween-80",109 % of control
same,T/C,"dose: 6.58 mg/kg/injection, schedule: Q01DX009 (ip), vehicle: saline with Tween-80",109 % of control
CC(C)NC(=O)OCc1c(COC(=O)NC(C)C)c(-c2ccc(Cl)c(Cl)c2)n2c1SCC2,T/C,[4],105 % of control
same,T/C,[5],115 % of control
same,T/C,[6],116 % of control and 121 % of control
same,T/C,[7],117 % of control and 123 % of control
same,T/C,"dose: 400.0 mg/kg/injection, schedule: Q01DX005 (ip), vehicle: saline with Tween-80",122 % of control
CC#CCOCC1CO1 (stereo not given),T/C,"dose: 14.6 mg/kg/injection, schedule: Q01DX009 (ip), vehicle: saline",100 % of control
same,T/C,"dose: 22.0 mg/kg/injection, schedule: Q01DX009 (ip), vehicle: saline",109 % of control
same,T/C,"dose: 33.0 mg/kg/injection, schedule: Q01DX009 (ip), vehicle: saline",118 % of control
same,T/C,[8],118 % of control
COc1ccc(-c2cn(-c3ccc(I)cc3)c3ncnc(N)c23)cc1,T/C,[1],99 % of control
same,T/C,[2],105 % of control
same,T/C,[3],90 % of control
CCCCN=NNCCCC,T/C,[9],110 % of control
same,T/C,[5],151 % of control
Cc1ccc2c(c1)sc1nc(C)cc(=O)n12,T/C,"dose: 10.0 mg/kg/injection, schedule: Q04DX002 (ip), vehicle: Klucel (hydroxypropylcellulose) (HPC)",106 % of control
same,T/C,"dose: 20.0 mg/kg/injection, schedule: Q04DX002 (ip), vehicle: Klucel (hydroxypropylcellulose) (HPC)",97 % of control
same,T/C,"dose: 40.0 mg/kg/injection, schedule: Q04DX002 (ip), vehicle: Klucel (hydroxypropylcellulose) (HPC)",95 % of control
O=[N+]([O-])CC(O)C(Cl)(Cl)Cl (stereo not given),T/C,"dose: 50.0 mg/kg/injection, schedule: Q01DX001 (ip), vehicle: saline",107 % of control
same,T/C,"dose: 100.0 mg/kg/injection, schedule: Q01DX001 (ip), vehicle: saline",107 % of control
same,T/C,"dose: 200.0 mg/kg/injection, schedule: Q01DX001 (ip), vehicle: saline",107 % of control
N#CC12CCCCC1CCC1(C2)OCCO1 (stereo not given),T/C,[10],111 % of control
same,T/C,[11],100 % of control
same,T/C,[12],108 % of control
CC1(C)CC(=O)[C@H]2SCC(=O)CC21 (stereo not given in full),T/C,[5],86 % of control
same,T/C,[6],99 % of control
CC(C)=CCc1c(C)c(O)c(C)c(C)c1O,T/C,"dose: 12.5 mg/kg/injection, schedule: Q01DX009 (ip), vehicle: distilled water + Tween-80 + alcohol",100 % of control
same,T/C,"dose: 25.0 mg/kg/injection, schedule: Q01DX009 (ip), vehicle: distilled water + Tween-80 + alcohol",92 % of control
same,T/C,"dose: 50.0 mg/kg/injection, schedule: Q01DX009 (ip), vehicle: distilled water + Tween-80 + alcohol",100 % of control
same,T/C,"dose: 100.0 mg/kg/injection, schedule: Q01DX009 (ip), vehicle: distilled water + Tween-80 + alcohol",95 % of control
same,T/C,"dose: 200.0 mg/kg/injection, schedule: Q01DX009 (ip), vehicle: distilled water + Tween-80 + alcohol",104 % of control
CCOS(=O)(=O)c1ccc([N+](=O)[O-])cc1,T/C,"dose: 12.5 mg/kg/injection, schedule: Q01DX009 (ip), vehicle: saline",95 % of control
same,T/C,"dose: 25.0 mg/kg/injection, schedule: Q01DX009 (ip), vehicle: saline",100 % of control
same,T/C,[8],98 % of control
same,T/C,"dose: 100.0 mg/kg/injection, schedule: Q01DX009 (ip), vehicle: saline",100 % of control and 90 % of control
CCC1COC(COCc2ccccc2)=N1 (stereo not given),T/C,"dose: 100.0 mg/kg/injection, schedule: Q01DX002 (ip), vehicle: saline",98 % of control
same,T/C,"dose: 200.0 mg/kg/injection, schedule: Q01DX002 (ip), vehicle: saline",95 % of control
same,T/C,"dose: 400.0 mg/kg/injection, schedule: Q01DX002 (ip), vehicle: saline",95 % of control
C=C(Cl)/C=N/C(=O)NC(O)C(=C)Cl (stereo not given),T/C,[5],93 % of control
same,T/C,[6],96 % of control
same,T/C,[7],93 % of control
N#CCc1noc2ccccc12,T/C,"dose: 12.5 mg/kg/injection, schedule: Q01DX009 (ip), vehicle: saline with Tween-80",103 % of control
same,T/C,"dose: 25.0 mg/kg/injection, schedule: Q01DX009 (ip), vehicle: saline with Tween-80",109 % of control
c1ccc2c(c1)-c1cc3ccc4ccccc4c3nc1C1OC21 (stereo not given),T/C,"dose: 25.0 mg/kg/injection, schedule: Q04DX002 (ip), vehicle: saline with Tween-80",105 % of control
same,T/C,"dose: 50.0 mg/kg/injection, schedule: Q04DX002 (ip), vehicle: saline with Tween-80",99 % of control
same,T/C,"dose: 100.0 mg/kg/injection, schedule: Q04DX002 (ip), vehicle: saline with Tween-80",100 % of control
CC(=O)Nc1nnc(-c2coc3ccc(C)cc3c2=O)s1,T/C,"dose: 6.25 mg/kg/injection, schedule: Q01DX005 (ip), vehicle: saline with Tween-80",99 % of control
same,T/C,[9],88 % of control and 89 % of control
same,T/C,[4],86 % of control
same,T/C,[5],86 % of control
CN=C(NC)c1ccc(NC(=O)c2ccc(C(=O)Nc3ccc(C(=NC)NC)cc3)c(Cl)c2)cc1,T/C,"dose: 18.0 mg/kg/injection, schedule: Q01DX010 (ip), vehicle: saline",218 % of control
same,T/C,"dose: 27.0 mg/kg/injection, schedule: Q01DX010 (ip), vehicle: saline",254 % of control
same,T/C,"dose: 40.0 mg/kg/injection, schedule: Q01DX010 (ip), vehicle: saline",209 % of control
same,T/C,"dose: 60.0 mg/kg/injection, schedule: Q01DX010 (ip), vehicle: saline",154 % of control
N#Cc1cnn(-c2cccc(Cl)c2)c1-n1cccc1,T/C,[13],100 % of control
same,T/C,[14],100 % of control
same,T/C,[15],93 % of control
CC(=O)n1nc(C)c(-c2onc3ccc(Cl)cc23)c1C,T/C,[10],104 % of control
same,T/C,[11],101 % of control
same,T/C,[12],90 % of control
Cc1ccc(C=C2c3ccccc3C(=O)c3ccccc32)cc1,T/C,"dose: 50.0 mg/kg/injection, schedule: Q01DX005 (ip), vehicle: Klucel (hydroxypropylcellulose) (HPC)",108 % of control
same,T/C,"dose: 100.0 mg/kg/injection, schedule: Q01DX005 (ip), vehicle: Klucel (hydroxypropylcellulose) (HPC)",107 % of control
same,T/C,"dose: 200.0 mg/kg/injection, schedule: Q01DX005 (ip), vehicle: Klucel (hydroxypropylcellulose) (HPC)",105 % of control
O=c1c2ccccc2on1CN1CCN(Cn2oc3ccccc3c2=O)CC1,T/C,"dose: 50.0 mg/kg/injection, schedule: Q01DX005 (ip), vehicle: water",106 % of control
same,T/C,"dose: 100.0 mg/kg/injection, schedule: Q01DX005 (ip), vehicle: water",108 % of control
same,T/C,"dose: 200.0 mg/kg/injection, schedule: Q01DX005 (ip), vehicle: water",111 % of control
C[N+]1=C(/C=C/Nc2ccc3c4c(cccc24)-c2ccccc2-3)C(C)(C)c2ccccc21,T/C,[13],108 % of control
same,T/C,[14],105 % of control
same,T/C,[15],118 % of control
